A short description of data set [1]: Pharmacokinetic determination in rats (IV and PO, plasma, LCMS/MS). The format is in vivo, SD rats. To be noted: male SD rats; for AUC(0-inf): read-out: AUCo-∞; for half-life: read-out: T1/2 (converted). Here is the method:
SD rats were used as test animals to study the pharmacokinetic behavior of the example compounds in rats (plasma) after oral administration.
The example compounds of the present invention, made in house.
3 SD rats per group, male. Shanghai Jiesijie Experimental Animal Co., Ltd., animal production license number (SCXK (Shanghai) 2013-0006 N0.311620400001794).
Formulation of a drug for oral administration: 10% Captisol in 50 mM citrate buffer pH 5.0.
Formulation of 50 mM citric acid: 4.8 g of citric acid was weighed into a 1000 ml glass bottle, ultrapure water was added to 300 ml, and the mixture was magnetically stirred until completely dissolved, additional ultrapure water was then added to 500 ml to formulate 50 mM citric acid.
Formulation of a solution containing 50 mM citric acid (10% Captisol, PH = 5): 50 g of Captisol powder was weighed and added to a 1000 ml glass bottle, 300 ml of 50 mM citric acid was added, and the mixture was magnetically stirred until completely dissolved, then additional citric acid was added to 500 ml, and the PH was adjusted to 5 using 10 M NaOH.
The example compounds were weighed and dissolved in the solution and the mixture was shaken well and subjected to ultrasound treatment for 15 min to obtain a colorless clear solution with a concentration of 3 mg/mL.
Formulation of a drug for intravenous administration: 5%DMSO+10%Solutol HS15+85%PBS.
The example compounds were weighed, and 5% DMSO was added according to the total administration volume; the mixture was vortexed and sonicated for 2 min to ensure complete dissolution; then, 10% Solutol HS15 was added, and the mixture was vortexed and sonicated for 2 min to achieve complete dissolution; finally, 85% PBS was added, and the mixture was vortexed and sonicated for 5 min; the obtained mixture was filtered through a 0.22 um membrane to obtain a colorless, transparent, and clear solution with a concentration of 0.2 mg/mL.
3 SD rats per group, male; After overnight fasting, the animals were administered orally (PO) at a dose of 30 mg/kg with an administration volume of 10 mL/kg.
3 SD rats per group, male; After overnight fasting, the animals were administered intravenously (IV) at a dose of 1 mg/kg with an administration volume of 5 mL/kg.
0.2 mL of blood was collected from the jugular vein before administration and at 0.25 h, 0.5 h, 1.0 h, 2.0 h, 4.0 h, 6.0 h, 8.0 h, and 24.0 h after administration and placed in an EDTA-2K test tube, and the test tube was centrifuged at 6000 rpm for 6 min at 4°C to separate the plasma, which was stored at -20°C. the animals were fed 4 h after administration.
The final determination results obtained by applying the LCMS/MS method are shown in the table below: Table 8: Pharmacokinetic parameters of the compounds administered intravenously in rats

The subject of another data set is GP2D. Put plainly: Inhibition of proliferation of KRAS G12D mutant tumor cell line GP2D (CellTiter-Glo). The conditions noted are these: read-out: GP2D IC50. (In ATP-based viability assays light output follows the ATP content of the culture.)
Data set [2] in a line: Plasma stability test, dog plasma.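 Further: parent compound left in dog plasma quantified by LC-MS with positive electrospray ionization, selected reaction monitoring and an internal standard.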 The format is in vitro ADME. To be noted: dog, plasma.
Description: (§1) Liquid chromatography-mass spectrometer, centrifuge, vortexer, pipette, continuous dispenser, 96-well plate, 50% methanol aqueous solution, acetonitrile solution containing internal standard, blank matrix (plasma of rat, dog, or human), Propantheline (propantheline bromide), Mevinolin (lovastatin), and test compound.
(§2) After whole blood was collected from animals or humans, it was placed in a test tube containing an anticoagulant and centrifuged at 3500 rpm for 10 min to collect the upper pale yellow plasma.
(§3) The compound was weighed and the stock solution was formulated with DMSO and the working solution was formulated with 100 mM phosphate buffer.
(§4) • Instrument: API4000 liquid chromatography-mass spectrometer, AB Company, USA; • the ion source was electrospray ionization source (ESI); • drying gas (N2) temperature was 500°C; • electrospray voltage was 5500V; • the detection method was positive ion detection; • the scanning method was selected reaction monitoring (MRM); • the scanning time was 0.1s.
Data set [3] in a line: Plasma stability test, mouse plasma.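 Further: test compound quantified by LC-MS using positive-mode electrospray ionization and MRM scanning, with an internal standard added in acetonitrile.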 Format: in vitro ADME. To be noted: mouse, plasma.
Description: as §1, §2, §3, §4
Data set [4] can be described thus: Plasma stability test, human plasma.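 Further: test compound incubated in human plasma, quantified by LC-MS/MS (positive-ion ESI, MRM) against an internal standard.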 Format: in vitro ADME. To be noted: human, plasma.
Description: as §1, §2, §3, §4
Setting [5] is: rat, in vivo, PO, 30 mg/kg, overnight fasting, plasma.
Where [6] appears, read: rat, in vivo, PO, 30 mg/kg, overnight fasting, plasma, read-out: Cmax.
The mark [7] stands for this setting: rat, in vivo, PO, 30 mg/kg, overnight fasting, plasma, read-out: Tmax.
Where [8] appears, read: IV, 1 mg/kg, overnight fasting, plasma.
[9] abbreviates: PO, 30 mg/kg, overnight fasting, plasma.

Where two headings read alike, the source gives them in different places.

For the compound `C#Cc1c(F)ccc2cc(O)cc(-c3nc4c5c(nc(OCC6(CN7CC8CC(=C(F)F)CC8C7)CC6)nc5c3F)N3C[C@H]5CC[C@H](N5)[C@H]3[C@H](C)O4)c12` (some centres unmarked) [Example 133], in data set [1] (setting [5]), the AUC(0-inf) was determined as 6510 ng·h/mL and the half-life is 7 h. Moreover, the highest concentration (Cmax) – broadly, the maximum level reached in the sampled fluid or tissue – in data set [1] (setting [6]) is 588 ng/mL. Also, in data set [1] (setting [7]), the Tmax (in general, the time from dosing to the highest level) was found to be 4 h. Moreover, in the data set with GP2D (Homo sapiens, GP2d, 72 h), the IC50 (usually the concentration at which inhibition is half-maximal) was found to be 0.53 nM.

`C#Cc1c(F)ccc2cc(O)cc(-c3nc4c5c(nc(OCC6(CN7C8CCC7CC(=C(F)F)C8)CC6)nc5c3F)N3C[C@H]5CC[C@H](N5)[C@H]3[C@H](C)O4)c12` [Example 134]: in the data set on GP2D (Homo sapiens, GP2d, 72 h), the IC50 was 1 nM.

In the case of `C#Cc1c(F)ccc2cc(O)cc(-c3nc4c5c(nc(OCC6(CN7CCCC(=C(F)F)CC7)CC6)nc5c3F)N3C[C@H]5CC[C@H](N5)[C@H]3[C@H](CC)O4)c12` [Example 140], in data set [1] (setting [5]), the AUC(0-inf) was 2280 ng·h/mL and the half-life was 11 h. Besides, the Cmax in data set [1] (setting [6]) is 118 ng/mL. The Tmax in data set [1] (setting [7]) was determined as 2 h. Moreover, in the data set with GP2D (Homo sapiens, GP2d, 72 h), the IC50 is 0.79 nM.

Regarding `C#Cc1c(F)ccc2cc(O)cc(-c3nc4c5c(nc(OCC6(CN7CC8CC(=C(F)F)CC8C7)CC6)nc5c3F)N3C[C@H]5CC[C@H](N5)[C@H]3[C@H](CC)O4)c12` (some centres unmarked) [Example 141], in data set [1] (setting [5]), the AUC(0-inf) turned out to be 17300 ng·h/mL and the half-life was 18.9 h. Besides, the Cmax in data set [1] (setting [6]) turned out to be 869 ng/mL. For the same compound, the Tmax in data set [1] (setting [7]) amounted to 2 h. Further, the IC50 in the data set on GP2D (Homo sapiens, GP2d, 72 h) came to 0.94 nM.

As to `[2H]C([2H])([2H])[C@@H]1Oc2nc(-c3cc(O)cc4ccc(F)c(C#C)c34)c(F)c3nc(OC([2H])([2H])C4(C([2H])([2H])N5CCC(=CF)CC5)CC4)nc(c23)N2C[C@H]3CC[C@H](N3)[C@@H]12` [Example 298], in the data set on GP2D (Homo sapiens, GP2d, 72 h), the IC50 was determined as 0.28 nM.

As for `CC[C@@H]1Oc2nc(-c3cc(N)cc(Cl)c3C(F)(F)F)c(F)c3nc(OCC4(CN5CCC(=CF)CC5)CC4)nc(c23)N2C[C@@H]3CC[C@@H](N3)[C@@H]12` [Example 322, 3-chloro-5-((5S,5aS,6R,9S)-5-ethyl-1-fluoro-12-((1-((4-(fluoromethylene)piperidin-1-yl)methyl)cyclopropyl)methoxy)-5a,6,7,8,9,10-hexahydro-5H-4-oxa-3,10a,11,13,14-pentaaza-6,9-methylnaphtho[1,8-ab]hept-2-yl)-4-(trifluoromethyl)aniline], in data set [1] (setting [8]), the “AUCo-∞” value is 219 ng·h/mL, the C0 worked out at 326 ng/mL, the CL was 76.2 mL/min/kg and the T1/2 stood at 11.6 h. The compound also returned a F in data set [1] (PO 30 mg/kg vs IV 1 mg/kg) of 10%. Also, in data set [1] (setting [9]), the “AUCo-∞” value is 694 ng·h/mL, the Cmax was 40 ng/mL, the T1/2 stood at 10.4 h and the time of peak concentration (Tmax) was 6.0 h. Also, in the data set on GP2D (proliferation, about 72 h, CellTiter-Glo), the IC50 was 0.61 nM.

For `C#Cc1c(F)ccc2cc(O)cc(-c3nc4c5c(nc(OCC6(CN7CCC(=NOC)C8(CC8)C7)CC6)nc5c3F)N3C[C@H]5CC[C@H](N5)[C@H]3[C@H](C)O4)c12` [Example 342, 5-((1-((((5S,5aS,6S,9R)-2-(8-ethynyl-7-fluoro-3-hydroxynaphthalen-1-yl)-1-fluoro-5-methyl-5a,6,7,8,9,10-hexahydro-5H-4-oxa-3,10a,11,13,14-pentaaza-6,9-methylnaphtho[1,8-ab]heptene-12-yl)oxy)methyl)cyclopropyl)methyl)-5-azaspiro[2.5]octan-8-one O-methyloxime], the IC50 in the data set with GP2D (Homo sapiens, GP2d, 72 h) worked out at 0.41 nM.

As to `C#Cc1c(F)ccc2cc(O)cc(-c3nc4c5c(nc(OCC6(CN7CC8CCC7CC8=NOC)CC6)nc5c3F)N3C[C@H]5CC[C@H](N5)[C@H]3[C@H](C)O4)c12` [Example 345], in the data set with GP2D (Homo sapiens, GP2d, 72 h), the IC50 was determined as 0.18 nM.

Turning to `CC(C)[N+](C)(CCOC(=O)C1c2ccccc2Oc2ccccc21)C(C)C` [Propantheline bromide, propantheline bromide, reference compound], the half-life in data set [2] is 1.34 h; in data set [3] it was 0.462 h; in data set [4], 0.27 h. For the same compound, the “Remaining rate (%) 0 min” value in data set [2] (0 h), in data set [3] (0 h) and in data set [4] (0 h) was 100.00% each time. The “Remaining rate (%) 15 min” value in data set [2] (0.25 h) amounted to 95.25%; in data set [3] (0.25 h) it was 79.79%; in data set [4] (0.25 h) it was 26.78%. The figures for the “Remaining rate (%) 30 min” value in data set [2] (0.5 h), in data set [3] (0.5 h) and in data set [4] (0.5 h) were 95.45%, 48.66% and 5.05%, respectively. In addition, the “Remaining rate (%) 60 min” value in data set [2] (1 h) was 75.66%; in data set [3] (1 h), 23.39%; in data set [4] (1 h) it was 0.25%. In addition, the “Remaining rate (%) 120 min” value worked out at 36.25% in data set [2] (2 h), 6.66% in data set [3] (2 h) and 0.05% in data set [4] (2 h).
